This passage reports EC50 results from patent US10034886B2, “GLP-1 receptor modulators” (Celgene International II SÀRL, priority 2014, dated 2018).

Usually EC50 stands for the concentration at which the effect is half-maximal.

The structures appear in SMILES notation.

T1 sequence (P43220 24-463): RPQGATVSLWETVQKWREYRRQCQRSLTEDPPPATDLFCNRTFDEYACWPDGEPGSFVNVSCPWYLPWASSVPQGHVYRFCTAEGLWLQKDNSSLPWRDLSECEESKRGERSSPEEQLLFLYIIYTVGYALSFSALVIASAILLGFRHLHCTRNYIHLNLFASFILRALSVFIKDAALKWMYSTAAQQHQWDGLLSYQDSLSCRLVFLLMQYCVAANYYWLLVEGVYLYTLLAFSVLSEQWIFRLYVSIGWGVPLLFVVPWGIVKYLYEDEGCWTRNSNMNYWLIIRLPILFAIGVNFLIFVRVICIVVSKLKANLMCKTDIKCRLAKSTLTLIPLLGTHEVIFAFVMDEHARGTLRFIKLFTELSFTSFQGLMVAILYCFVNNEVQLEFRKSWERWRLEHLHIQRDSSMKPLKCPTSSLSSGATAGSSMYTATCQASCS
T1 sequence (P01275 100-127 partner limits assumed): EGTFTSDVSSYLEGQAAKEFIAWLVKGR

The experiment concerns the target T1, GLP-1R (Homo sapiens, UniProt P43220).
T1 construct: host or cells: GLP-1R CRE-bla CHO-K1 cells
As to the kind of experiment: EC20 GLP-1(9-36) PAM cAMP assay: dose response of compound in the presence of fixed concentration of GLP-1(9-36). The class given is cell-based. As to conditions: GLP-1R CRE-bla CHO-K1 cells, compound dose response with fixed concentration of GLP-1(9-36), read-out: EC20 GLP-1(9-36) PAM EC50. Put shortly: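 GLP-1R CRE-bla CHO-K1 cells treated 30 min at 37 °C with 12-point compound dose response plus fixed EC20 GLP-1(9-36), with IBMX, in HBSS/HEPES/0.1% BSA pH 7.4. Total cAMP measured by luminescent detection against standard curve; EC50 and Emax from non-linear regression.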
As for `CCC[C@H]1CC[C@H](C2CCN(c3cnc(-c4ccc(C[C@H](NC(=O)c5ccc(C(C)(C)C)s5)C(=O)N5CCC[C@H](C(=O)O)C5)cc4)nc3)CC2)CC1` [Compound 1456], the EC50 is less than 800 nM.

In the case of `CCC[C@H]1CC[C@H](C2CCN(c3cnc(-c4ccc(C[C@H](NC(=O)c5ccc(C(C)(C)C)s5)C(=O)N5CCC(C(=O)O)CC5)cc4)nc3)CC2)CC1` [Compound 1457], the concentration giving a half-maximal response (EC50) was less than 800 nM.

As for `CCC[C@H]1CC[C@H](C2CCN(c3cnc(-c4ccc(C[C@H](NC(=O)c5ccc(C(C)(C)C)s5)C(=O)NC(CCCOC)C(=O)O)cc4)nc3)CC2)CC1` (some centres unmarked) [Compound 1458], the EC50 was less than 800 nM.

As for `CCC[C@H]1CC[C@H](C2CCN(c3cnc(-c4ccc(C[C@H](NC(=O)c5ccc(C(C)(C)C)s5)C(=O)NC(CN(C)C)C(=O)O)cc4)nc3)CC2)CC1` (some centres unmarked) [Compound 1459], the EC50 is less than 800 nM.

Consider `CCC[C@H]1CC[C@H](C2CCN(c3cnc(-c4ccc(C[C@H](NC(=O)c5ccc(C(C)(C)C)s5)C(=O)N[C@H](CC(N)=O)C(=O)O)cc4)nc3)CC2)CC1` [Compound 1460], for which the EC50 is less than 800 nM.

On to `CCC[C@H]1CC[C@H](C2CCN(c3cnc(-c4ccc(C[C@H](NC(=O)c5ccc(C(C)(C)C)s5)C(=O)NCC(=O)O)cc4)nc3)CC2)CC1` [Compound 1461], for which the concentration giving a half-maximal response (EC50) was less than 800 nM.

Take `CCC[C@H]1CC[C@H](C2CCN(c3cnc(-c4ccc(C[C@H](NC(=O)c5ccc(C(C)(C)C)s5)C(=O)N[C@H](CC(C)C)C(=O)O)cc4)nc3)CC2)CC1` [Compound 1462]: the half-maximal effective concentration (EC50) fell in the range of 800 to 2500 nM.

On to `CCC[C@H]1CC[C@H](C2CCN(c3cnc(-c4ccc(C[C@H](NC(=O)c5ccc(C(C)(C)C)s5)C(=O)N[C@@H](CC(=O)O)C(=O)O)cc4)nc3)CC2)CC1` [Compound 1463], for which the EC50 was less than 800 nM.

`C=C(N[C@H](Cc1ccccc1)C(=O)O)[C@H](Cc1ccc(-c2ncc(N3CCC([C@H]4CC[C@H](CCC)CC4)CC3)cn2)cc1)NC(=O)c1ccc(C(C)(C)C)s1` [Compound 1464]: the EC50 was less than 800 nM.

As for `CCC[C@H]1CC[C@H](C2CCN(c3cnc(-c4ccc(C[C@H](NC(=O)c5ccc(C(C)(C)C)s5)C(=O)N[C@@H](CCCNC(=N)N)C(=O)O)cc4)nc3)CC2)CC1` [Compound 1465], the concentration for a half-maximal effect (EC50) was less than 800 nM.

Take `CCC[C@H]1CC[C@H](C2CCN(c3cnc(-c4ccc(C[C@H](NC(=O)c5ccc(C(C)(C)C)s5)C(=O)NC(C)(C)C(=O)O)cc4)nc3)CC2)CC1` [Compound 1466]: the EC50 was less than 800 nM.

Turning to `CCC[C@H]1CC[C@H](C2CCN(c3cnc(-c4ccc(C[C@H](NC(=O)c5ccc(C(C)(C)C)s5)C(=O)N[C@@H](CO)C(=O)O)cc4)nc3)CC2)CC1` [Compound 1467], the half-maximal effective concentration (EC50) was less than 800 nM.

Consider `CCC[C@H]1CC[C@H](C2CCN(c3cnc(-c4ccc(C[C@H](NC(=O)c5ccc(C(C)(C)C)s5)C(=O)N[C@H](C)CC(=O)O)cc4)nc3)CC2)CC1` [Compound 1468], for which the EC50 was less than 800 nM.

`CCC[C@H]1CC[C@H](C2CCN(c3cnc(-c4ccc(C[C@H](NC(=O)c5ccc(C(C)(C)C)s5)C(=O)N[C@H](C(=O)O)[C@@H](C)O)cc4)nc3)CC2)CC1` [Compound 1469]: the concentration giving a half-maximal response (EC50) was less than 800 nM.

Take `CCC[C@H]1CC[C@H](C2CCN(c3cnc(-c4ccc(C[C@H](NC(=O)c5ccc(C(C)(C)C)s5)C(=O)NC5(C(=O)O)CCCC5)cc4)nc3)CC2)CC1` [Compound 1470]: the half-maximal effective concentration (EC50) was less than 800 nM.

On to `CCC[C@H]1CC[C@H](C2CCN(c3cnc(-c4ccc(C[C@H](NC(=O)c5ccc(C(C)(C)C)s5)C(=O)NC(CCN)C(=O)O)cc4)nc3)CC2)CC1` (some centres unmarked) [Compound 1471], for which the concentration for a half-maximal effect (EC50) was less than 800 nM.

`CCC[C@H]1CC[C@H](C2CCN(c3cnc(-c4ccc(C[C@H](NC(=O)c5ccc(C(C)(C)C)s5)C(=O)N[C@@H](CN)C(=O)O)cc4)nc3)CC2)CC1` [Compound 1472]: the EC50 is less than 800 nM.

As for `CCC[C@H]1CC[C@H](C2CCN(c3cnc(-c4ccc(C[C@H](NC(=O)c5ccc(C(C)(C)C)s5)C(=O)N[C@H](CN)C(=O)O)cc4)nc3)CC2)CC1` [Compound 1473], the concentration giving a half-maximal response (EC50) was less than 800 nM.

For the compound `CCc1ccc(C2CCN(c3cnc(-c4ccc(C[C@H](NC(=O)c5ccc(C(C)(C)C)s5)C(=O)N5CC(C(=O)O)C5)cc4)nc3)CC2)cc1` [Compound 1474], the concentration for a half-maximal effect (EC50) was less than 800 nM.

Consider `Cc1ccccc1C1CCN(c2cnc(-c3ccc(C[C@H](NC(=O)c4ccc(C(C)(C)C)s4)C(=O)N4CC(C(=O)O)C4)cc3)nc2)CC1` [Compound 1475], for which the concentration giving a half-maximal response (EC50) was less than 800 nM.

Consider `Cc1cccc(C2CCN(c3cnc(-c4ccc(C[C@H](NC(=O)c5ccc(C(C)(C)C)s5)C(=O)N5CC(C(=O)O)C5)cc4)nc3)CC2)c1` [Compound 1476], for which the EC50 is less than 800 nM.

With `COc1cccc(C2CCN(c3cnc(-c4ccc(C[C@H](NC(=O)c5ccc(C(C)(C)C)s5)C(=O)N5CC(C(=O)O)C5)cc4)nc3)CC2)c1` [Compound 1477], the EC50 was less than 800 nM.

As for `CC(C)(C)c1ccc(C(=O)N[C@@H](Cc2ccc(-c3ncc(N4CCC(c5ccc(Cl)cc5)CC4)cn3)cc2)C(=O)N2CC(C(=O)O)C2)s1` [Compound 1478], the EC50 was 800 to 2500 nM.

For the compound `CC(C)(C)c1ccc(C(=O)N[C@@H](Cc2ccc(-c3ncc(N4CCC(c5cccc(Cl)c5)CC4)cn3)cc2)C(=O)N2CC(C(=O)O)C2)s1` [Compound 1479], the half-maximal effective concentration (EC50) was in the range of 800 to 2500 nM.

On to `CC(C)(C)c1ccc(C(=O)N[C@@H](Cc2ccc(-c3ncc(N4CCC(c5ccccc5Cl)CC4)cn3)cc2)C(=O)N2CC(C(=O)O)C2)s1` [Compound 1480], for which the concentration giving a half-maximal response (EC50) was 800 to 2500 nM.

Take `CC(C)(C)c1ccc(C(=O)N[C@@H](Cc2ccc(-c3ncc(N4CCC(c5ccc(C(F)(F)F)cc5)CC4)cn3)cc2)C(=O)N2CC(C(=O)O)C2)s1` [Compound 1481]: the EC50 was less than 800 nM.

For the compound `CC(C)(C)c1ccc(C(=O)N[C@@H](Cc2ccc(-c3ncc(N4CCC(c5cccc(C(F)(F)F)c5)CC4)cn3)cc2)C(=O)N2CC(C(=O)O)C2)s1` [Compound 1482], the half-maximal effective concentration (EC50) lay within 800 to 2500 nM.

In the case of `COc1ccc(C2CCN(c3cnc(-c4ccc(CC(NC(=O)c5ccc(C(C)(C)C)s5)C(=O)N5CC(C(=O)O)C5)cc4)nc3)CC2)c(C)c1` (centres unmarked) [Compound 1483], the 50% effective concentration (EC50) was 800 to 2500 nM.

Regarding `CC(C)(C)c1ccc(C(=O)NC(Cc2ccc(-c3ncc(N4CCC(c5cccc(F)c5)CC4)cn3)cc2)C(=O)N2CC(C(=O)O)C2)s1` (centres unmarked) [Compound 1484], the EC50 was in the range of 800 to 2500 nM.

With `CN(CCC(C)(O)c1cccc(OC(F)(F)F)c1)c1cnc(-c2ccc(CC(NC(=O)c3ccc(C(C)(C)C)s3)C(=O)N3CC(C(=O)O)C3)cc2)nc1` (centres unmarked) [Compound 1485], the EC50 is less than 800 nM.

For the compound `CN(C)c1ccc(C2CCN(c3cnc(-c4ccc(CC(NC(=O)c5ccc(C(C)(C)C)s5)C(=O)N5CC(C(=O)O)C5)cc4)nc3)CC2)cc1` (centres unmarked) [Compound 1486], the EC50 was in the range of 800 to 2500 nM.

As to `CC(C)(C)c1ccc(C(=O)NC(Cc2ccc(-c3ncc(N4CCC(c5ccc(Br)cc5)CC4)cn3)cc2)C(=O)N2CC(C(=O)O)C2)s1` (centres unmarked) [Compound 1487], the 50% effective concentration (EC50) fell in the range of 800 to 2500 nM.

With `CC(C)(C)c1ccc(C(=O)N[C@@H](Cc2ccc(-c3ncc(N4CCC(c5cccc(Br)c5)CC4)cn3)cc2)C(=O)N2CC(C(=O)O)C2)s1` [Compound 1488], the 50% effective concentration (EC50) lay in the range of 800 to 2500 nM.

With `COc1ccc(C2CCN(c3cnc(-c4ccc(CC(NC(=O)c5ccc(C(C)(C)C)s5)C(=O)N5CC(C(=O)O)C5)cc4)nc3)CC2)cc1` (centres unmarked) [Compound 1489], the concentration for a half-maximal effect (EC50) was less than 800 nM.

Take `CCOc1ccc(C2CCN(c3cnc(-c4ccc(CC(NC(=O)c5ccc(C(C)(C)C)s5)C(=O)N5CC(C(=O)O)C5)cc4)nc3)CC2)cc1` (centres unmarked) [Compound 1490]: the concentration giving a half-maximal response (EC50) was in the range of 800 to 2500 nM.

For the compound `CC(C)(C)c1ccc(C(=O)NC(Cc2ccc(-c3ncc(N4CCC(c5ccccc5F)CC4)cn3)cc2)C(=O)N2CC(C(=O)O)C2)s1` (centres unmarked) [Compound 1491], the EC50 is 800 to 2500 nM.

On to `COc1ccccc1C1CCN(c2cnc(-c3ccc(C[C@H](NC(=O)c4ccc(C(C)(C)C)s4)C(=O)N4CC(C(=O)O)C4)cc3)nc2)CC1` [Compound 1492], for which the concentration giving a half-maximal response (EC50) fell in the range of 800 to 2500 nM.

On to `CC(C)(C)c1ccc(C2CCN(c3cnc(-c4ccc(C[C@H](NC(=O)c5ccc(C(C)(C)C)s5)C(=O)N5CC(C(=O)O)C5)cc4)nc3)CC2)cc1` [Compound 1493], for which the EC50 is less than 800 nM.

On to `CCCOc1ccc(C2CCN(c3cnc(-c4ccc(C[C@H](NC(=O)c5ccc(C(C)(C)C)s5)C(=O)N5CC(C(=O)O)C5)cc4)nc3)CC2)cc1` [Compound 1494], for which the concentration giving a half-maximal response (EC50) was 800 to 2500 nM.

In the case of `COCCc1ccc(C2CCN(c3cnc(-c4ccc(C[C@H](NC(=O)c5ccc(C(C)(C)C)s5)C(=O)N5CC(C(=O)O)C5)cc4)nc3)CC2)cc1` [Compound 1495], the concentration for a half-maximal effect (EC50) fell in the range of 800 to 2500 nM.

For `CCCC1CCC(C2CCN(c3cnc(-c4ccc(C[C@H](NC(=O)c5ccc(C(C)(C)C)s5)C(=O)N5CC(C(=O)O)C5)cc4)nc3)C(=O)C2)CC1` (some centres unmarked) [Compound 1496], the EC50 lay in the range of 800 to 2500 nM.

Regarding `CCCC1CCN(C(=O)C(C)(C)CNc2cnc(-c3ccc(C[C@H](NC(=O)c4ccc(C(C)(C)C)s4)C(=O)N4CC(C(=O)O)C4)cc3)nc2)CC1` [Compound 1497], the half-maximal effective concentration (EC50) lay within 2500 to 5000 nM.

As for `CCCc1ccc(C2CCN(c3cnc(-c4ccc(C[C@H](NC(=O)c5ccc(C(C)(C)C)s5)C(=O)N5CC(C(=O)O)C5)cc4)nc3)CC2)cn1` [Compound 1498], the EC50 lay in the range of 800 to 2500 nM.

In the case of `CCCc1cnc(C2CCN(c3cnc(-c4ccc(C[C@H](NC(=O)c5ccc(C(C)(C)C)s5)C(=O)N5CC(C(=O)O)C5)cc4)nc3)CC2)nc1` [Compound 1499], the 50% effective concentration (EC50) is 2500 to 5000 nM.

Consider `CC(C)(C)c1ccc(C(=O)N[C@@H](Cc2ccc(-c3ncc(N4CCC(c5ccc(CC#N)cc5)CC4)cn3)cc2)C(=O)N2CC(C(=O)O)C2)s1` [Compound 1500], for which the EC50 lay within 5000 to 10000 nM.

`CCCc1ccc(C2CCN(c3cnc(-c4ccc(C[C@H](NC(=O)c5ccc(C(C)(C)C)s5)C(=O)N5CC(C(=O)O)C5)cc4)nc3)CC2)nn1` [Compound 1501]: the concentration for a half-maximal effect (EC50) was in the range of 5000 to 10000 nM.

For `CCCc1ccc(C2CN(c3cnc(-c4ccc(C[C@H](NC(=O)c5ccc(C(C)(C)C)s5)C(=O)N5CC(C(=O)O)C5)cc4)nc3)C2)cc1` [Compound 1502], the EC50 is 2500 to 5000 nM.
